Data published in patent US5418239A, “Tricyclic heterocyclic compounds, their production and use” (Takeda Chemical Industries, Ltd., priority 1990, dated 1995).

Tests used:
[1] = biological target: T1, Acyl-CoA:cholesterol transferase (ACAT) (Rattus norvegicus, UniProt Q7TQM4); assay: Acyl-CoA:cholesterol transferase (ACAT) inhibitory activity (labeled cholesterol ester production, small intestinal mucosal microsome fraction); assay type: biochemical, male sprague-Dawley rat; conditions: rat small intestinal mucosal microsomes; for inhibition at 1 µM: 10^-6 M test compound, read-out: ACAT inhibition rate (%) (labeled cholesterol ester production inhibiting rate); for IC50: plotted at a plurality of concentration levels, read-out: IC50 (50% inhibitory concentration, ACAT)
T1 construct: small intestinal mucosal microsome fraction of a 6-week-old male sprague-Dawley rat; from tissue; host or cells: small intestinal mucosal microsome fraction, 6-week-old male Sprague-Dawley rat
T1 sequence (Q7TQM4 1-524): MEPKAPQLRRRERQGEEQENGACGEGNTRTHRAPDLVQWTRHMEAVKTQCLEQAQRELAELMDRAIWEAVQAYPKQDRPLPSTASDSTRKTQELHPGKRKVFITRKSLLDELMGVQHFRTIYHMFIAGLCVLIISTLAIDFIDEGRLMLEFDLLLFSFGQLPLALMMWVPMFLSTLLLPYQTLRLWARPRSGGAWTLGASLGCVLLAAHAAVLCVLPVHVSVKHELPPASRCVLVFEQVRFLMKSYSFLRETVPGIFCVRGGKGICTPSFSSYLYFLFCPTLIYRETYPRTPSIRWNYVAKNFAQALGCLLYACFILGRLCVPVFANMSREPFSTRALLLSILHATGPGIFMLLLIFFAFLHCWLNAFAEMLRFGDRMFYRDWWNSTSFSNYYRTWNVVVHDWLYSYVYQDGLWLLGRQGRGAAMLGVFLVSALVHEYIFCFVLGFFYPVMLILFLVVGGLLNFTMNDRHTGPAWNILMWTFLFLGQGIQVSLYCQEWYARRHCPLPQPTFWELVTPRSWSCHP
Method: Samples of ACAT enzyme were prepared from the small intestinal mucosal microsome fraction of a 6-week-old male sprague-Dawley rat fasted for 20 hours in accordance with the procedure described by Heider et al, Journal of Lipid Research 24, 1127 (1982).
ACAT activity was determined in accordance with the method of Helgerud et al., Journal of Lipid Research 22, 271 (1981), by measuring the amount of labeled cholesterol ester produced from [1-^14 C]oloyl-CoA and endogenous cholesterol.
The 50% inhibitory concentration (IC50) determined by plotting at a plurality of concentration levels is also shown.

[2] = system: plasma cholesterol; assay: Plasma cholesterol lowering activity in cholesterol-fed rats; assay type: in vivo, Male Sprague-Dawley rats; conditions: 1% cholesterol diet containing 0.0003% test compound, 7 days; ingested about 0.23-0.24 mg/kg/day; mean ± S.D.; * p < 0.05 (t-test) against control group (181.8 ± 60.4)
Method: Male Sprague-Dawley rats aged 7 weeks were divided into groups based on body weight and put on a 1% cholesterol diet (the rat diet supplemented with 0.5% cholic acid and 5% olive oil) containing 0.0003% of the test compound for 7 days. The blood was sampled from surfeited rats between 8:30 and 10:00 a.m. and the plasma cholesterol concentration was enzymatically determined. The amount of the compound ingested was calculated from the food consumption.

Row | Structure (SMILES) | inhibition at 1 µM [1] | IC50 [1] | Plasma cholesterol [2]
1 | O=C(Nc1ccc(F)cc1F)Nc1cnc2cc3c(cc2c1-c1ccccc1Cl)CCC3 [Example 1, N-[4-(2-chlorophenyl)-7,8-dihydro-6H-cyclopenta[g]quinolin-3-yl]-N'-(2,4-difluorophenyl)urea] | 99.3% | 3.8 nM | 80.8 ± 18.6 mg/dL
2 | COc1ccc(C=CC(=O)Nc2c(-c3ccccc3C)c3cc4c(cc3oc2=O)CCC4)cc1OC [Example 13, 3-(3,4-dimethoxycinnamoylamino) -4-(2-methylphenyl)-7,8-dihydrocyclopenta[g] 1benzopyran-2(6H)-one] | 89.9% | – | –
3 | Cc1ccccc1-c1c(NC(=O)Nc2ccc(F)cc2F)c(=O)oc2cc3c(cc12)CCCC3 [Example 10, N-(2,4-difluorophenyl)-N'-[4-(2-methylphenyl)-6,7,8,9-tetrahydro-2-oxo-2H-naphtho[2,3-b]pyran-3-yl]urea] | 98.7% | – | –
4 | Cc1ccccc1-c1c(NC(=O)Nc2ccc(F)cc2F)cnc2cc3c(cc12)CCC3 [Example 2, N-[7,8-Dihydro-4-(2-methylphenyl)-6H-cyclopenta[g]-quinolin-3-yl]-N'-(2,4-difluorophenyl)urea] | 99.2% | 3.9 nM | 78.5 ± 10.2 mg/dL
5 | COc1cc(NC(=O)Nc2c(-c3ccccc3C)c3cc4c(cc3oc2=O)CCC4)cc(OC)c1O [Example 16, N-(4-hydroxy-3,5-dimethoxyphenyl)-N'-[4-(2-methylphenyl)-2-oxo-2,6,7,8-tetrahydrocyclopenta [g] [1]benzopyran-3-yl]urea] | 94.4% | – | –
6 | Cc1ccccc1-c1c(NC(=O)Nc2ccc(N(C)C)cc2)c(=O)oc2cc3c(cc12)CCC3 [Example 9, N-(4-dimethylaminophenyl)-N'-[4-(2-methylphenyl)-2-oxo-2,6,7,8-tetrahydrocyclopenta[g] [1]benzo-pyran-3-yl]urea] | 94.6% | – | –
7 | Cc1ccccc1-c1c(NC(=O)Nc2ccc(F)cc2F)c(=O)n(C)c2cc3c(cc12)CCC3 [Example 19, N-(2,4-difluorophenyl)-N'-[1-methyl-4-(2-methylphenyl)-2-oxo-l,2,7,8-tetrahydro-6H-cyclopenta-[g]quinolin-3-yl]urea] | 98.2% | – | –
8 | CC(C)(C)c1cc(-c2c(NC(=O)Nc3ccc(F)cc3F)c(=O)oc3cc4c(cc23)CCC4)cc(C(C)(C)C)c1O [Example 8, N-[4-(3,5-di-tert-butyl-4-hydroxyphenyl)-2-oxo-2,6,7,8-tetrahydrocyclopenta[g] [1]benzopyran-3-yl]-N'-(2,4-difluorophenyl]urea] | 99% | – | –
9 | Cc1ccccc1-c1c(NC(=O)Nc2cc(C)c(O)c(C)c2)c(=O)oc2cc3c(cc12)CCC3 [Example 17, N-(4-hydroxy-3,5-dimethylphenyl)-N'-[4-(2-methylphenyl)-2-oxo-2,6,7,8-tetrahydrocyclopenta-[g] [1]benzopyran-3-yl]urea] | 97.6% | – | –
10 | Cc1ccccc1-c1c(NC(=O)Nc2ccc(F)cc2F)c(=O)oc2cc3c(cc12)CCC3 [Example 3, N-(2,4-difluorophenyl)-N'-[4-(2-methylphenyl)-2-oxo-2,6,7,8-tetrahydrocyclopenta[g][1]-benzopyran-3-yl]urea] | 99.5% | – | 78.1 ± 12.6 mg/dL
11 | Cc1ccccc1-c1c(NC(=O)Cc2cc(C(C)(C)C)c(O)c(C(C)(C)C)c2)c(=O)oc2cc3c(cc12)CCC3 [Example 15, 3-(3,5-di-tert-butyl-4-hydroxyphenylacetylamino) -4-(2-methylphenyl)-7,8-dihydrocyclopenta-[g] [1]benzopyran-2(6H)-one] | 89.6% | – | –
12 | O=C(Cc1ccc(F)cc1F)Nc1cnc2cc3c(cc2c1-c1ccccc1Cl)CCC3 [Example 4, 4-(2-chlorophenyl)-3-(2,4-difluorophenylacetylamino)-7,8-dihydro-6H-cyclopenta(g)quinoline] | 91.5% | – | –
13 | Cc1ccccc1-c1c(NC(=O)C=Cc2ccc(O)c(O)c2)c(=O)oc2cc3c(cc12)CCC3 [Example 18, 3-(3,4-dihydroxycinnamoylamino)-4-(2-methylphenyl)-7,8-dihydrocyclopenta [g] [1]benzopyran-2(6H)-one] | 86.9% | – | –
14 | COc1nc2cc3c(cc2c(-c2ccccc2Cl)c1NC(=O)Nc1cc(C)c(OC(C)=O)c(C)c1)CCC3 [Example 11, N-(4-acetoxy-3,5-dimethylphenyl)-N'-[4-(2-chlorophenyl)-7,8-dihydro-2-methoxy-6H-cyclopenta[g]-quinolin-3-yl]urea] | 75.6% | – | –
15 | CC(=O)Oc1c(C)cc(NC(=O)Nc2c(-c3ccccc3C)c3cc4c(cc3n(C)c2=O)CCC4)cc1C [Example 12, N-(4-acetoxy-3,5-dimethylphenyl)-N'-[1-methyl-4-(2-methylphenyl)-2-oxo-l,2,7,8-tetrahydro-6H-cyclopenta[g]quinolin-3-yl]urea] | 91.1% | – | –
